From paper PMC5811606, “Characterization of ^111In-labeled Glucose-Dependent Insulinotropic Polypeptide as a Radiotracer for Neuroendocrine Tumors” (Scientific Reports, 2018) come the findings set out here.

For data set [1], the system named is subcutaneous BHK-GIPR tumors. Kind of data set: Biodistribution study, BHK-GIPR tumor mice. It counts as in vivo, BALB/c nude mice. Conditions: biodistribution studies in BALB/c nude mice, i.v. Here is the method: All animal experiments were approved by the Animal Welfare Body of the Radboud University, Nijmegen, The Netherlands and carried out in accordance with their guidelines. Six to eight weeks old, female BALB/c nude mice and C3H mice were purchased from Janvier labs (Le Genest Saint Isle, France). For all in vivo experiments, 6-8 weeks old female BALB/c nude mice were injected subcutaneously in the right shoulder with 0.2 ml of a 2.5 × 10^7 cells/ml suspension of BHK-GIPR transfected cells or with 0.2 ml of a 2.5 × 10^7 cells/ml suspension of NES2Y cells mixed with matrigel (2:1) in the right shoulder. When the tumor reached a diameter of 2-5 mm, mice were randomly divided in groups.
BALB/c nude mice bearing BHK-GIPR transfected tumors were injected intravenously with approximately 3 MBq (peptide dose 0.2 µg = 0.04 nmol) of [Lys^37(^111In-DTPA)]N-acetyl-GIP1-42 via the tail vein. At various time points after injection (1, 4 and 24 hours), mice were euthanized by CO2/O2 suffocation and blood, tumor and other relevant tissues were dissected, weighed and measured in a well type gamma counter. The percentage injected dose per gram (%ID/g) was calculated for each tissue. To determine whether the GIP1-42 uptake was GIPR mediated, 25 µg of unlabeled GIP1-42 was co-injected in a separate group (n = 5) and mice were euthanized four hours post-injection. BALB/c nude mice bearing NES2Y tumors (n = 5) were injected intravenously with approximately 3 MBq (peptide dose 0.2 µg = 0.04 nmol) of [Lys^37(^111In-DTPA)]N-acetyl-GIP1-42 via the tail vein. One hour after injection, mice were euthanized by CO2/O2 suffocation and blood, tumor and other relevant tissues were dissected, weighed and measured in a well type gamma counter. The percentage injected dose per gram (%ID/g) was determined for each tissue. To determine whether the GIP1-42 uptake was GIPR mediated, 25 µg of unlabeled GIP1-42 was co-injected in a separate group (n = 2) and mice were euthanized one hours post-injection.

Data set [2] is described as follows: Serum stability analysis in human serum. The following applies: human serum (1:10), 37 °C. It counts as in vitro ADME. How it is done: [Lys^37(DTPA)]N-acetyl-GIP1-42 (MW = 5422 g/mol) and GIP1-42 (MW = 5046.7 g/mol) were purchased from Peptide Specialty Laboratories (PSL GmbH, Heidelberg, Germany). DTPA was conjugated to the ε-amino group of the Lysine (K37) and the N-terminal tyrosine was acetylated to reduce its susceptibility to […] (Fig. 1). [Lys^37(DTPA)]GIP1-42 was dissolved in 0.5 M MES (2-(N-morpholino)ethanesulfonic acid) buffer, pH 5.5 and stored at 4 °C until use. […] Radiochemical purity of [Lys^37(^111In-DTPA)]N-acetyl-GIP1-42 was determined by instant thin-layer chromatography (ITLC) (ITLC-SG, Agilent Technologies, Lake Forest, CA, USA), using 0.1 M EDTA in 0.1 M NH4Ac (Sigma Aldrich), pH 5.5 as a mobile agent and by reversed-phase high performance liquid chromatography (RP-HPLC) using an Eclipse XDB C18 column (Agilent Technologies). […]
For the serum stability analysis, [Lys^37(DTPA)]N-acetyl-GIP1-42 was labeled with [^111In]Cl3 at a specific activity of 27 GBq/µmol. Radiochemical purity of [Lys^37(^111In-DTPA)]N-acetyl-GIP1-42 directly after labeling was determined by ITLC-SG (Agilent Technologies) and RP-HPLC as described above. […] This mixture was centrifuged and after dilution, the radiochemical purity of the compound in the supernatant was analyzed using ITLC and RP-HPLC as described above.

“Also recorded” adds a separate entry of the source.

Regarding `CC[C@H](C)[C@H](NC(=O)[C@H](CO)NC(=O)[C@H](Cc1ccc(O)cc1)NC(=O)[C@H](CC(=O)O)NC(=O)[C@H](CO)NC(=O)[C@@H](NC(=O)[C@H](Cc1ccccc1)NC(=O)[C@@H](NC(=O)CNC(=O)[C@H](CCC(=O)O)NC(=O)[C@H](C)NC(=O)[C@H](Cc1ccc(O)cc1)NC(C)=O)[C@@H](C)O)[C@@H](C)CC)C(=O)N[C@@H](C)C(=O)N[C@@H](CCSC)C(=O)N[C@@H](CC(=O)O)C(=O)N[C@@H](CCCCN)C(=O)N[C@H](C(=O)N[C@@H](Cc1c[nH]cn1)C(=O)N[C@@H](CCC(N)=O)C(=O)N[C@@H](CCC(N)=O)C(=O)N[C@@H](CC(=O)O)C(=O)N[C@@H](Cc1ccccc1)C(=O)N[C@H](C(=O)N[C@@H](CC(N)=O)C(=O)N[C@@H](Cc1c[nH]c2ccccc12)C(=O)N[C@@H](CC(C)C)C(=O)N[C@@H](CC(C)C)C(=O)N[C@@H](C)C(=O)N[C@@H](CCC(N)=O)C(=O)N[C@@H](CCCCN)C(=O)NCC(=O)N[C@@H](CCCCN)C(=O)N[C@@H](CCCCN)C(=O)N[C@@H](CC(N)=O)C(=O)N[C@@H](CC(=O)O)C(=O)N[C@@H](Cc1c[nH]c2ccccc12)C(=O)N[C@@H](CCCCNC(=O)CN(CCN(CCN(CC(=O)O)CC(=O)O)CC(=O)O)CC(=O)O)C(=O)N[C@@H](Cc1c[nH]cn1)C(=O)N[C@@H](CC(N)=O)C(=O)N[C@H](C(=O)N[C@H](C(=O)N[C@@H](CCC(N)=O)C(=O)O)[C@@H](C)O)[C@@H](C)CC)C(C)C)[C@@H](C)CC` [[Lys^37(^111In-DTPA)]N-acetyl-GIP1-42, metal not drawn], the blood clearance result in data set [1] is “cleared from the blood very rapidly”. In addition, the remaining at 24 h in data set [2] (24 hours, acetonitrile precipitation, RP-HPLC, read-out: activity found as intact radiolabeled peptide) is 73%. For the same molecule, in data set [2] (up to 4 hours, ITLC and RP-HPLC), the “stability in human serum” value is listed as “remained intact; also recorded: remained stable”.
